Source: patent publication US3962282A, “Juvenile hormone mimics” (priority 1974, dated 1976)

Legend:
alfalfa weevil larvae = test: topical application to alfalfa weevil larvae; type: in vivo; conditions: 10 percent solution in acetone, all controls reached normal adulthood
Text: A number of compounds were applied topically to alfalfa weevil larvae as a 10 percent solution in acetone. Acetone and nontreated controls were also run. Ten larvae were used in each test. The number of normal adults emerging from the larvae was observed. In each case, all the acetone and nontreated controls reached normal adulthood. The number of normal adults from treated larvae are reported below.

Tenebrio molitor pupae = test: topical application to Tenebrio molitor pupae, maturation inhibition; type: in vivo
Outline: (§1)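 Compounds applied topically, 1 μL acetone solution at 10%, 1% or 0.5%, to ten specimens per insect per concentration, alongside acetone and untreated controls; scored after about 8–10 days. Juvenile/adult characteristics rated 0–3 (Tenebrio 0–4), ≥2 meaning unable to reproduce; unreported specimens died during metamorphosis.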

[1] = Wigglesworth, J. Ins. Physiol. 9, 105 (1963); cited from earlier work
milkweed bug = test: topical application to milkweed bug, fourth nymphal stage, maturation inhibition; type: in vivo; conditions: rating scale 0-3
Outline: as §1

[2] = system: Housefly (Musca domestica); test: housefly rearing diet test, percent adult emergence; type: in vivo
Experimental: Test compounds were mixed with the rearing diet of houseflys at various levels. The prepared diet was then placed in an 8 oz. drinking cup. Three cups were prepared for each treatment level and three control cups. Housefly eggs (Musca domestica) were placed in each cup and they were maintained at 28°C. for 1 week. Fifty pupae were then removed from each cup and placed in a petri dish. After the control pupae had emerged into adults, the percent emergence in each dish was recorded. The test compounds used were 7,8-epoxy-4-ethyl-8-methyl-1-(3,4-methylenedioxyphenyl)-3-decene, 4,8-dimetyl-1-(3,4-methylenedioxyphenyl)-2,6-nonadiene and 2,6-dichloro-2,6-dimethyl-9-(3,4-methylenedioxyphenyl)nonane.

[3] = system: Aedes aegypti mosquito larvae; test: mosquito larvae in aqueous solutions, adult emergence; type: in vivo; conditions: for number of adults, Jar 1 Dead / number of adults, Jar 1 Living / number of adults, Jar 2 Dead / number of adults, Jar 2 Living: 13 days
Experimental: Two compounds, 7,8-epoxy-4-ethyl-8-methyl-1-(3,4-methylenedioxyphenyl)-3-decene and 2,6-diemthyl-9-(3,4-methylenedioxyphenyl)-2,6-nonadiene, were tested against Aedes aegypti mosquito larvae in aqueous solutions at concentrations of 10, 5, 2.5. 1.25 and 0.625 ppm. each. Ninety milliliters of each solution were placed in a pint jar and 30 five-day-old mosquito larvae were added to each jar. Two tests were run at each concentration and control tests employing only solvent with no compound were also run. Food was added to each jar, the jars were covered with cloths, and maintained at 29°C. until adults emerged in the control jars. The number of adults in the test jars was determined.

housefly larvae = test: topical application to housefly larvae; type: in vivo, Musca domestica; conditions: scale 0-2
Experimental: The compounds were applied in acetone solution at concentrations of 10 percent, 1 percent and 0.5 percent. One microliter of the acetone solution was applied to each test specimen. Ten test specimens were employed for each insect at each concentration and compared to ten acetone controls and ten zero controls. Approximately eight to ten days were required before results could be ascertained.
A number of compounds were tested against housefly larvae by topical application in an acetone solution using the method described above for the primary test against Tenebrio, milkweed bug, wax moth, and Mexican bean bettel. The results with the first compound are reported on a scale of 0 to 3 with 0 indicating a normal adult, 1 indicating an adult with deformed wings, 2 indicating a partially emerged adult, and 3 indicating no evidence of emergence. The results for the other compounds are reported onn a scale of 0 to 2 with 0 indicating a normal adult, 1 indicating a partially emerged adult and 2 indicating no evidence of emergence.

wax moth = test: topical application to wax moth, fifth larval stage, maturation inhibition; type: in vivo
Outline: as §1

Mexican bean beetle = test: topical application to Mexican bean beetle, fourth larval stage, maturation inhibition; type: in vivo; conditions: rating scale 0-3
Outline: as §1

aphid nymphs = test: application to aphid nymphs in acetone; type: in vivo, Aphis gossypi; conditions: 3 days
Experimental: In another test, female aphids were placed on young squash plants and allowed to produce young for 24 hours. After 24 hours, all adult aphids were removed from the plants and the young were maintained on the plants for an additional 48-hour period. This gave an aphid nymph population having an age of 48 to 72 hours. To each nymph was applied […]. of a 10 percent, 1 percent, or 0.5 percent solution of 2.6- dimethyl-9-(3,4-methylenedioxyphenyl)-2,6-nonadiene or 7,8-epoxy-4-ethyl-8-methyl-1-(3,4-methylenedioxyphenyl)-3-decene in acetone and the aphid nymphs were transferred to new squash plants and observed for possible effects. Ten nymphs were treated with each concentration of each compound and 10 were treated with acetone alone while 10 were not treated to serve as controls. […] There was only one dead nymph treated with acetone alone and one dead nymph in the nontreated controls.

[4] = 10% in acetone, 1 microliter topical, rating scale 0 (no effect) to 3 (maximum)

COc1cc(CCC=C(C)CCC=C(C)C)cc(OC)c1 [9-(3,5-dimethoxyphenyl)-2,6-dimethyl-2,6-nonadiene]
Number of Adults (normal adults from ten treated larvae) (alfalfa weevil larvae): 8

CC(C)=CCCC(C)=CCCc1ccc2c(c1)OCCO2 [9-(3,4-ethylenedioxyphenyl)-2,6-dimethyl-2,6-nonadiene]
Number of Adults (normal adults from ten treated larvae) (alfalfa weevil larvae): 7 | number of specimens in rating 4 (Tenebrio molitor pupae; 0.5%, rating scale 0-4): 10 specimens | number of specimens in rating 3 (Tenebrio molitor pupae; 1%, rating scale 0-4): 2 specimens | number of specimens in rating 4 (Tenebrio molitor pupae; 1%, rating scale 0-4): 8 specimens | number of specimens in rating 4 (Tenebrio molitor pupae; 10%, rating scale 0-4): 10 specimens

9-(2-furyl)-2,6-dimethyl-2,6-nonadiene [dendrolasin]
juvenile hormone activity [1]: some juvenile hormone activity

CCC(=CCCc1ccc2c(c1)OCO2)CCC1OC1(C)CC (stereo not drawn) [7,8-epoxy-4-ethyl-8-methyl-1-(3,4-methylenedioxyphenyl)-3-decene]
number of specimens in rating 3 (milkweed bug; 0.5%): 9 specimens | number of specimens in rating 3 (milkweed bug; 1%): 8 specimens | percent adult emergence, Cup 1 ([2]; 0.1 ppm in diet): 100% | percent adult emergence, Cup 2 ([2]; 0.1 ppm in diet): 100% | percent adult emergence, Cup 3 ([2]; 0.1 ppm in diet): 100% | percent adult emergence, Cup 1 ([2]; 1 ppm in diet): 100% | percent adult emergence, Cup 2 ([2]; 1 ppm in diet): 100% | percent adult emergence, Cup 3 ([2]; 1 ppm in diet): 100% | percent adult emergence, Cup 1 ([2]; 10 ppm in diet): 100% | percent adult emergence, Cup 2 ([2]; 10 ppm in diet): 100% | percent adult emergence, Cup 3 ([2]; 10 ppm in diet): 100% | control ([2]; 100 ppm): ≥ 80% | percent adult emergence, Cup 1 ([2]; 100 ppm in diet): 10% | percent adult emergence, Cup 2 ([2]; 100 ppm in diet): 20% | percent adult emergence, Cup 3 ([2]; 100 ppm in diet): 10% | number of adults, Jar 1 Dead ([3]; 0.625 ppm): 0 | number of adults, Jar 1 Living ([3]; 0.625 ppm): 0 | number of adults, Jar 2 Dead ([3]; 0.625 ppm): 0 | number of adults, Jar 2 Living ([3]; 0.625 ppm): 0 | number of adults, Jar 1 Dead ([3]; 1.25 ppm): 0 | number of adults, Jar 1 Living ([3]; 1.25 ppm): 0 | number of adults, Jar 2 Dead ([3]; 1.25 ppm): 0 | number of adults, Jar 2 Living ([3]; 1.25 ppm): 0 | number of adults, Jar 1 Dead ([3]; 2.5 ppm): 0 | number of adults, Jar 1 Living ([3]; 2.5 ppm): 0 | number of adults, Jar 2 Dead ([3]; 2.5 ppm): 0 | number of adults, Jar 2 Living ([3]; 2.5 ppm): 0 | number of adults, Jar 1 Dead ([3]; 5 ppm): 0 | number of adults, Jar 1 Living ([3]; 5 ppm): 0 | number of adults, Jar 2 Dead ([3]; 5 ppm): 0 | number of adults, Jar 2 Living ([3]; 5 ppm): 0 | number of adults, Jar 1 Dead ([3]; 10 ppm): 0 | number of adults, Jar 1 Living ([3]; 10 ppm): 0 | number of adults, Jar 2 Dead ([3]; 10 ppm): 0 | number of adults, Jar 2 Living ([3]; 10 ppm): 0 | control ([3]; at concentrations as low as 0.625 ppm): 100% | live adults in the jars ([3]; nonadiene at 10, 5, and 2.5 ppm, decene at any concentration): never any live adults | number in rating 0 (normal adult) (housefly larvae; 0.5%): 6 | number in rating 2 (no evidence of emergence) (housefly larvae; 0.5%): 4 | number in rating 0 (normal adult) (housefly larvae; 1%): 5 | number in rating 1 (partially emerged adult) (housefly larvae; 1%): 1 | number in rating 2 (no evidence of emergence) (housefly larvae; 1%): 4 | number in rating 2 (no evidence of emergence) (housefly larvae; 10%): 10 | number of specimens in rating 4 (Tenebrio molitor pupae; 0.5%, rating scale 0-4): 10 specimens | number of specimens in rating 4 (Tenebrio molitor pupae; 1%, rating scale 0-4): 10 specimens | number of specimens in rating 0 (wax moth; 0.5%, rating scale 0-3): 1 specimens | number of specimens in rating 3 (wax moth; 0.5%, rating scale 0-3): 9 specimens | number of specimens in rating 3 (wax moth; 1%, rating scale 0-3): 10 specimens | number of specimens in rating 3 (Mexican bean beetle; 0.5%): 10 specimens | number of specimens in rating 3 (Mexican bean beetle; 1%): 10 specimens | dead nymphs (aphid nymphs; 0.5 percent): nine of the ten | dead nymphs (aphid nymphs; 1 percent): all of the nymphs | dead nymphs (aphid nymphs; 10 percent): all of the nymphs

COc1ccc(CCC=C(C)CCC=C(C)C)cc1OC [2,6-DIMETHYL-9-(3,4-DIMETHOXYPHENYL)-2,6-NONADIENE]
number of specimens in rating 0 (milkweed bug; 0.5%): 8 specimens | number of specimens in rating 0 (milkweed bug; 1%): 8 specimens | number of specimens in rating 2 (milkweed bug; 10%): 3 specimens | number of specimens in rating 3 (milkweed bug; 10%): 2 specimens | Number of Adults (normal adults from ten treated larvae) (alfalfa weevil larvae): 5 | number of specimens in rating 0 (Tenebrio molitor pupae; 0.5%, rating scale 0-4): 10 specimens | number of specimens in rating 0 (Tenebrio molitor pupae; 1%, rating scale 0-4): 4 specimens | number of specimens in rating 1 (Tenebrio molitor pupae; 1%, rating scale 0-4): 5 specimens | number of specimens in rating 0 (Tenebrio molitor pupae; 10% in acetone, 1 microliter topical, rating scale 0 (no effect) to 4 (maximum)): 2 specimens | number of specimens in rating 1 (Tenebrio molitor pupae; 10%, rating scale 0-4): 5 specimens | number of specimens in rating 2 (Tenebrio molitor pupae; 10%, rating scale 0-4): 3 specimens | number of specimens in rating 0 (wax moth; 0.5%, rating scale 0-3): 10 specimens | number of specimens in rating 0 (wax moth; 1%, rating scale 0-3): 10 specimens | number of specimens in rating 0 (wax moth; [4]): 10 specimens | number of specimens in rating 0 (Mexican bean beetle; 0.5%): 10 specimens | number of specimens in rating 0 (Mexican bean beetle; 1%): 10 specimens | number of specimens in rating 1 (Mexican bean beetle; 10%): 3 specimens

COc1cccc(CCC=C(C)CCC=C(C)C)c1 [2,6-DIMETHYL-9-(3-METHOXYPHENYL)-2,6-NONADIENE]
number of specimens in rating 0 (milkweed bug; 0.5%): 3 specimens | number of specimens in rating 1 (milkweed bug; 0.5%): 3 specimens | number of specimens in rating 2 (milkweed bug; 0.5%): 4 specimens | number of specimens in rating 1 (milkweed bug; 1%): 1 specimens | number of specimens in rating 2 (milkweed bug; 1%): 5 specimens | number of specimens in rating 3 (milkweed bug; 1%): 3 specimens | number of specimens in rating 3 (milkweed bug; 10%): 9 specimens | Number of Adults (normal adults from ten treated larvae) (alfalfa weevil larvae): 6 | number of specimens in rating 3 (Tenebrio molitor pupae; 0.5%, rating scale 0-4): 1 specimens | number of specimens in rating 4 (Tenebrio molitor pupae; 0.5%, rating scale 0-4): 9 specimens | number of specimens in rating 4 (Tenebrio molitor pupae; 1%, rating scale 0-4): 10 specimens | number of specimens in rating 4 (Tenebrio molitor pupae; 10%, rating scale 0-4): 10 specimens | number of specimens in rating 0 (wax moth; 0.5%, rating scale 0-3): 10 specimens | number of specimens in rating 0 (wax moth; 1%, rating scale 0-3): 9 specimens | number of specimens in rating 0 (wax moth; [4]): 9 specimens | number of specimens in rating 2 (wax moth; 10%, rating scale 0-3): 1 specimens | number of specimens in rating 0 (Mexican bean beetle; 0.5%): 10 specimens | number of specimens in rating 0 (Mexican bean beetle; 1%): 10 specimens | number of specimens in rating 3 (Mexican bean beetle; 10%): 3 specimens
